Results as given in BindingDB's records for patent US20250270222 (Satellos Bioscience, 2025).

Experiments:
[1] = molecular target: T1, BMP-2-inducible protein kinase [38-345,K320A,K321A] (Human, UniProt Q9NSY1, K320A/K321A); experiment: BIKE pSENs Assay
T1 construct: 38-345
Protocol: BIKE protein was dissolved at 20 nM in 1× enzyme solution (50 mM HEPES pH7.5, 10 mM MgCl2, 1 mM DTT, 1% glycerol, 0.5 mM EGTA, 0.01% Briji35, 0.02% BSA) and 12.5 ul was incubated with 250 nl DMSO or 250 nl compound in DMSO at 25° C. for 15 min. The reaction was started by addition of 12.5 ul of 30 uM AQT0759 (Assayquant, CSKS-AQT0759B) and 40 uM ATP which were diluted in 1× substrate dilution buffer (50 mM HEPES pH7.5, 10 mM MgCl2. 1 mM DTT, 1% glycerol, 0.5 mM EGTA, 0.01% Briji35).

[2] = molecular target: T2, Cyclin-G-associated kinase [25-335] (Human, UniProt O14976); experiment: GAK pSENs Assay
T2 construct: 25-335
T2 sequence (O14976 whole entry): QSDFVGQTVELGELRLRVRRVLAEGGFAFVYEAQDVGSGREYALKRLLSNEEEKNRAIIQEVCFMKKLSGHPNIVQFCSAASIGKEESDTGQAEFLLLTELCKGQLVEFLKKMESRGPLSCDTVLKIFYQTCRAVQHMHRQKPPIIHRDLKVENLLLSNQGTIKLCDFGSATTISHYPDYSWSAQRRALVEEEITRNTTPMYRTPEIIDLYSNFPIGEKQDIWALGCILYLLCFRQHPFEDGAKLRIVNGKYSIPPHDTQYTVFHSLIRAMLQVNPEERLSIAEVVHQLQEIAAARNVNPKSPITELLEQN
Source text: This example describes one illustrative method for determining the IC50 of the compounds of the present invention against GAK (amino acids Q25-N335).

T1 sequence (Q9NSY1 38-345 K320A/K321A): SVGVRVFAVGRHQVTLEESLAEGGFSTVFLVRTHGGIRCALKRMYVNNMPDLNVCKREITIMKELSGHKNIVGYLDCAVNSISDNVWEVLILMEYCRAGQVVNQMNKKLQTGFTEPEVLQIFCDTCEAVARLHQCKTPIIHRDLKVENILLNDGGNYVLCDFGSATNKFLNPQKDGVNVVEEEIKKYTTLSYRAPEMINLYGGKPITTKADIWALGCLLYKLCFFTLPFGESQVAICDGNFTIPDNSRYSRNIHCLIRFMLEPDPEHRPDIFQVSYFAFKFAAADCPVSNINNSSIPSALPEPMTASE

IC50 [1]: > 1500 nM
IC50 [2]: > 1500 nM
Structure (SMILES): CN(CCN1C[C@@H](OC(=O)N2CCN(c3ccn4ncc(-c5cccnc5OC5CC5)c4n3)CC2)CC1=O)C(=O)OC(C)(C)C [US20250270222, Compound I-35]
